“Also recorded” adds a separate entry of the source.
Experiments:
[1] = system: FKBPL; experiment: FKBPL mRNA levels in HTR8.SV.neo cells; assay type: cell-based; conditions: 10 μM, 24 h, serum-containing medium
Description: (§1) Trophoblast (HTR8.SV.neo, BeWo) and endothelial cells (HUVEC) were exposed to: • i. diabetic stimuli, in the form of highly oxidised and glycated low density lipoproteins (HOG-LDL, 25 μg/ml)/4HNE (10 μM) or high glucose (10, 20, 30, 40 mM); or • ii. hypoxia (1%) or DMOG (10 μM), before FKBPL/SIRT1 protein and RNA levels were measured.

[2] = system: FKBPL; experiment: FKBPL protein expression in BeWo trophoblast cell line; assay type: cell-based; conditions: BeWo cells, 10 μM, serum-containing medium
Description: as §1

[3] = system: FKBPL; experiment: FKBPL protein level in HUVEC under hypoxia or normoxia (Western blotting); assay type: cell-based, human; conditions: 24 h, metformin 10 μM
Description: HUVEC cells were seeded and then exposed to hypoxia (1%) or normoxia (21%) for 24 h in the presence of metformin or vehicle control (VC). Protein lysates were prepared and FKBPL protein level measured using Western blotting.

Structure (SMILES) | FKBPL mRNA levels [1] | FKBPL mRNA levels ([1]; listed as 4HNE) | FKBPL protein expression [2] | FKBPL protein expression ([2]; listed as 4HNE) | FKBPL expression normalised to vehicle control ([3]; hypoxia (1%)) | FKBPL expression normalised to vehicle control ([3]; normoxia (21%))
CCCCCC(O)/C=C/C=O (centres unmarked) [4-HNE] | No change | No change in FKBPL mRNA levels | downregulation of FKBPL protein expression | reduction in FKBPL protein levels | – | –
COC(=O)CNC(=O)C(=O)OC [DMOG] | reduction in FKBPL mRNA levels; also recorded: downregulation in FKBPL mRNA levels | – | reduction; also recorded: downregulation of FKBPL protein expression | – | – | –
CN(C)C(=N)N=C(N)N [metformin] | – | – | – | – | increasing the protein expression of FKBPL; also recorded: upregulates FKBPL | No change in FKBPL levels; also recorded: does not affect levels of FKBPL

Reference: US20190204335A1, “Assay Method For Determining The Risk Of Pre-Eclampsia” (The Queen's University of Belfast, priority 2016, published 2019)
